Patent US7649012B2, “Compounds, pharmaceutical compositions containing same, and methods of use for same” (FASgen, Inc., priority 2002, dated 2010)
In brackets after ≈: the same amount, converted by molar mass. Like-named read-outs stand apart in the source and are kept apart here.

Legend:
[1] = molecular target: T1, purified human FAS (Homo sapiens, UniProt P49327); assay: Measurement of FAS enzymatic activity (NADPH oxidation), IC50; type: biochemical
T1 construct: Human FAS was purified from cultured ZR-75-1 human breast cancer cells; endogenous in cells; host or cells: ZR-75-1 human breast cancer cells (ATCC); endogenous enzyme purified by PEG precipitation and Mono Q anion exchange
T1 sequence (P49327 whole entry): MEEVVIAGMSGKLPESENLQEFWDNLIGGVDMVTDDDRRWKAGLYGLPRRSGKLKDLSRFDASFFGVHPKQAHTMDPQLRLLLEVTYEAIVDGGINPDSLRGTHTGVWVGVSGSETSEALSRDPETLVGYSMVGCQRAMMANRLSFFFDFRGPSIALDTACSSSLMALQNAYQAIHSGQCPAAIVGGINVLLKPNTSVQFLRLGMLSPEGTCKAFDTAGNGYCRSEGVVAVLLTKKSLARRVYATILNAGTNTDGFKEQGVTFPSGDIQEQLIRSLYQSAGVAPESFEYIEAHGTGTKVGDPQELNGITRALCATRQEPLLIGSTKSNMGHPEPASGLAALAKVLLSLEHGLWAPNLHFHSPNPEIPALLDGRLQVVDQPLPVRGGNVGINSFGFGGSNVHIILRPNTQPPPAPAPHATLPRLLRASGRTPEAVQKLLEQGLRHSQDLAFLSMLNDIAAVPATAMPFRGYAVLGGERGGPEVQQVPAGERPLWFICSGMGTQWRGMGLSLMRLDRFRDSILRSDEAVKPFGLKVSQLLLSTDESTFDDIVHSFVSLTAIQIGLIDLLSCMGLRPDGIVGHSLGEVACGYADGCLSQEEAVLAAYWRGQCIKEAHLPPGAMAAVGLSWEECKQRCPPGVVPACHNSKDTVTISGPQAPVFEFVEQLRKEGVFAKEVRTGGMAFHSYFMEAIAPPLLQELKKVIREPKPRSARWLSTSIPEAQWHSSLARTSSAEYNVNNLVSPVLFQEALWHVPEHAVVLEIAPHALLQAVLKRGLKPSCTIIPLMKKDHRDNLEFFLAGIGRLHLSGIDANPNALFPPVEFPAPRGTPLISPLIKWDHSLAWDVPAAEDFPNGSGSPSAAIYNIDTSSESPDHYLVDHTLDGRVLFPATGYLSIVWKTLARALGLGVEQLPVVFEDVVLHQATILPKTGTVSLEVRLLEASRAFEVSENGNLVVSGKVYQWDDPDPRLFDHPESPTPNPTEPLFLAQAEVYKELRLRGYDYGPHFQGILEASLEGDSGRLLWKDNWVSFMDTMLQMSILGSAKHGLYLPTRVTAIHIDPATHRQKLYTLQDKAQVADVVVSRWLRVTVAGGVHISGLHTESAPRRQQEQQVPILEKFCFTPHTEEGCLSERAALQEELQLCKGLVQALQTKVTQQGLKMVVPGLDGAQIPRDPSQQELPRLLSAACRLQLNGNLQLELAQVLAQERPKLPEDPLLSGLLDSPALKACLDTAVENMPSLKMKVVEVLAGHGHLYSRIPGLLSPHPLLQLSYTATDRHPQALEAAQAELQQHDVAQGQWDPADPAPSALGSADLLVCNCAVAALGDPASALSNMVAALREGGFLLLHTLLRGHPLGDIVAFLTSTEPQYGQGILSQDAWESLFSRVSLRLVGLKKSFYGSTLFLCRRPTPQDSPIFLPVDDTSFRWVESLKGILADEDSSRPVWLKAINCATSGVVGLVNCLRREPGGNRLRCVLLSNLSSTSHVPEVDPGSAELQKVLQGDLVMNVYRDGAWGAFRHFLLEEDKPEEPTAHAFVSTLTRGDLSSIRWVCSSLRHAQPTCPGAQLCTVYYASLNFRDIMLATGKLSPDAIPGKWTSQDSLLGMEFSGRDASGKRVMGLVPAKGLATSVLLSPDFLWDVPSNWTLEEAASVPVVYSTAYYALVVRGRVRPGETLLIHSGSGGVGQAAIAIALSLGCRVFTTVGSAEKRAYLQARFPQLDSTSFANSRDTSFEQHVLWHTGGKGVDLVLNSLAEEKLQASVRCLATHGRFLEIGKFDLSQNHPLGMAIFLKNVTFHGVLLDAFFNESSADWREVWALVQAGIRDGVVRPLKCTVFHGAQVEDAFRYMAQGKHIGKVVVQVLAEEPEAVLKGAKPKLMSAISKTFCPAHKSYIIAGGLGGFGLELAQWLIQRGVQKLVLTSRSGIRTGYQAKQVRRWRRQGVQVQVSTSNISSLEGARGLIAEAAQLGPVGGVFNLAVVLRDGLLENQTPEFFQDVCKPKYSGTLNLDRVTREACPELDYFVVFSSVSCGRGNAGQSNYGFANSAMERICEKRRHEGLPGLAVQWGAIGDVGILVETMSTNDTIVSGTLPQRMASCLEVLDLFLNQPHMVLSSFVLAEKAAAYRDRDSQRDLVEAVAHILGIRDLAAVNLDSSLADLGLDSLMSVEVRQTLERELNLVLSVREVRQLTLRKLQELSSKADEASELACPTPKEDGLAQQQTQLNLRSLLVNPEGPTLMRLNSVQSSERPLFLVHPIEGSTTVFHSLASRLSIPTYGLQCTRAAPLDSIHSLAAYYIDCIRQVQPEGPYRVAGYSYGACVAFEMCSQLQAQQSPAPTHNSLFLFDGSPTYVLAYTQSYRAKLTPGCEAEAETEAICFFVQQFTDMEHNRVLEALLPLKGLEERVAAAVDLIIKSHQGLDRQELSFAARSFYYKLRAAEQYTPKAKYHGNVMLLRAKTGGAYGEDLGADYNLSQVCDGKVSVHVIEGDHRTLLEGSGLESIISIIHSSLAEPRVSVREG
Procedure: Human FAS was purified from cultured ZR-75-1 human breast cancer cells obtained from the American Type Culture Collection. The procedure, adapted from Linn et al., 1981, and Kuhajda et al., 1994, utilizes hypotonic lysis, successive polyethyleneglycol (PEG) precipitations, and anion exchange chromatography. […] The lysate is centrifuged in JA-20 rotor (Beckman) at 20,000 rpm for 30 minutes at 4° C. and the supernatant is brought to 42 ml with lysis buffer. A solution of 50% PEG 8000 in lysis buffer is added slowly to the supernatant to a final concentration of 7.5%. After rocking for 60 minutes at 4° C., the solution is centrifuged in JA-20 rotor (Beckman) at 15,000 rpm for 30 minutes at 4° C. […] After the rocking and centrifugation is repeated as above, the pellet is resuspended overnight at 4° C. in 10 ml of Buffer A (20 mM K2HPO4, pH 7.4). After 0.45 μM filtration, the protein solution is applied to a Mono Q 5/5 anion exchange column (Pharmacia). The column is washed for 15 minutes with buffer A at 1 ml/minute, and bound material is eluted with a linear 60-ml gradient over 60 minutes to 1 M KCl. […] FAS protein concentration is determined using the Coomassie Plus Protein Assay Reagent (Pierce) according to manufacturer's specifications using BSA as a standard. This procedure results in substantially pure preparations of FAS (>95%) as judged by Coomassie-stained gels. FAS activity is measured by monitoring the malonyl-CoA dependent oxidation of NADPH spectrophotometrically at OD340 in 96-well plates (Dils et al and […] et al, 1975). […] For each experiment, cerulenin (Sigma) is run as a positive control along with DMSO controls, inhibitors, and blanks (no FAS enzyme) all in duplicate. The assay is performed on a Molecular Devices SpectraMax Plus Spectrophotometer. The plate containing FAS, buffers, inhibitors, and controls are placed in the spectrophotometer heated to 37° C. Using the kinetic protocol, the wells are blanked on duplicate wells containing 100 μl of 100 mM K2HPO4, pH 6.5 and the plate is read at OD340 at 10 sec intervals for 5 minutes to measure any malonyl-CoA independent oxidation of NADPH. The plate is removed from the spectrophotometer and malonyl-CoA (67.4 μM, final concentration per well) and […] (61.8 μM, final concentration per well) are added to each well except to the blanks. The plate is read again as above with the kinetic protocol to measure the malonyl-CoA dependent NADPH oxidation. The difference between the Δ OD340 for the malonyl-CoA dependent and non-malonyl-CoA dependent NADPH oxidation is the specific FAS activity. Because of the purity of the FAS preparation, non-malonyl-CoA dependent NADPH oxidation is negligible. […] Graphs of Δ OD340 versus time are plotted by the SOFTmax PRO software (Molecular Devices) for each compound concentration.

[2] = test system: MCF-7 human breast cancer cells; assay: [14C]acetate incorporation into total lipids; type: cell-based; details: for 14C(IC50): [14C]acetate incorporation into lipids; for IC50: Homo sapiens, MCF7, [14C]acetate incorporation into lipids
Procedure: This assay measures the incorporation of [^14C]acetate into total lipids and is a measure of fatty acid synthesis pathway activity in vitro. It is utilized to measure inhibition of fatty acid synthesis in vitro.
MCF-7 human breast cancer cells cultured as above, are plated at 5×10^4 cells per well in 24-well plates. […] DMSO is added to triplicate wells for a vehicle control. C75 is run at 5 and 10 μg/ml in triplicate as positive controls. After 4 hours of incubation, 0.25 μCi of [^14C]acetate (10 μl volume) is added to each well.
After 2 hours of additional incubation, medium is aspirated from the wells and 800 μl of chloroform:methanol (2:1) and 700 μl of 4 mM MgCl2 is added to each well. Contents of each well are transferred to 1.5 Eppendorf tubes, and spun at full-speed for 2 minutes in a high-speed Eppendorf Microcentrifuge 5415D. After removal of the aqueous (upper) layer, an additional 700 μl of chloroform:methanol (2:1) and 500 μl of 4 mM MgCl2 are added to each tube and then centrifuged for 1 minutes as above. The aqueous layer is removed with a Pasteur pipette and discarded. An additional 400 μl of chloroform:methanol (2:1) and 200 μl of 4 mM MgCl2 are added to each tube, then centrifuged and aqueous layer is discarded. The lower (organic) phase is transferred into a scintillation vial and dried at 40° C. under N2 gas. Once dried, 3 ml of scintillant (APB #NBC5104) is added and vials are counted for ^14C. The Beckman Scintillation counter calculates the average cpm values for triplicates.
The IC50 for the compounds is defined as the concentration of drug leading to a 50% reduction in [^14C]acetate incorporation into lipids compared to controls. […] The average cpm values are computed by the Beckman scintillation counter (Model LS6500) for each compound concentration. Computation of linear regression, best-fit line, r^2, and 95% confidence intervals are calculated using Prism Version 3.0 (Graph Pad Software).

| FAS(IC50) [1] | IC50 [2] | IC50 [1] | IC50 ([1]; unit inferred) | SMILES | 14C(IC50) [2] |
| --- | --- | --- | --- | --- | --- |
| – | – | 44.8 µM | – | C=C/C(C)=C/C1(C)SC(=O)C=C1O (stereo not drawn) | – |
| – | 14.7 µg/mL (≈ 43.4 µM) | – | 121 µM | CCCCCCCC[C@@]1(C)SC(=O)C(C(=O)C(F)(F)F)=C1O (racemic) | – |
| – | 17.3 µg/mL (≈ 82.3 µM) | 339 µM | – | C/C=C/C(C)=C/C1(C)SC(=O)C=C1O (stereo not drawn) | – |
| Neg | 25.7 µg/mL (≈ 72.7 µM) | – | – | C=CCN(C)C(=O)COC1=CC(=O)SC1(C)CCCCCCCC (stereo not drawn) | – |
| Neg | 12.1 ± 0.1 µg/mL (≈ 42.5 µM) | – | – | CCCCCCCC[C@@]1(C)SC(=O)C(C(C)=O)=C1O (racemic) | – |
| Neg | 11 µg/mL (≈ 42.9 µM) | – | – | CCCCCCCCC1(C)SC(=O)C=C1OC (stereo not drawn) | – |
| Neg | 63.8 µg/mL (≈ 236 µM) | – | – | CCCCCCCCC1(C)SC(=O)C(C)=C1OC (stereo not drawn) | – |
| Neg | 14.9 µg/mL | – | – | C=CCC1(C)C(=O)S[C@](C)(CCCCCCCC)C1=O (mixture of isomers) | – |
| Neg | 10.5 ± 2.6 µg/mL (≈ 23.9 µM) | – | – | CCCCCCCCC1(C)SC(=O)C=C1OCC(=O)NNCc1ccc(Cl)cc1 (stereo not drawn) | – |
| Neg | 11.5 µg/mL (≈ 32.3 µM) | – | – | CCCCCCCCC1(C)SC(=O)C=C1OCC(=O)NNC(C)=O (stereo not drawn) | – |
| Neg | 6.6 µg/mL (≈ 20 µM) | – | – | CCCCCC[C@@]1(C)SC(=O)C=C1OCC(=O)NCC(=O)O (racemic) | – |
| Neg | – | – | – | COC1=CC(=O)SC1(C)Cc1ccccc1 (stereo not drawn) | – |
| – | 14.5 ± 6.9 µg/mL (≈ 46.1 µM) | – | 9.54 µM | CCCCCCCCC1(C)SC(=O)C=C1OC(=O)OCC (stereo not drawn) | – |
| Neg | 14.2 ± 0.2 µg/mL (≈ 47.3 µM) | – | – | CCCCCC[C@@]1(C)SC(=O)C=C1OCC(=O)OCC (racemic) | – |
| Neg | 9.8 µg/mL (≈ 28.5 µM) | – | – | CCCCCC[C@@]1(C)SC(=O)C=C1OCC(=O)NCC(=O)OC (racemic) | – |
| Neg | 6.8 µg/mL (≈ 20.4 µM) | – | – | CCCCCCCC[C@@]1(C)SC(=O)C=C1OCCCCCl (racemic) | – |
| Neg | 23.1 ± 17.4 µg/mL (≈ 77.9 µM) | – | – | C=CCC1=C(OC)C(C)(CCCCCCCC)SC1=O (stereo not drawn) | – |
| Neg | 22.6 µg/mL (≈ 75.7 µM) | – | – | CCCCCCCC[C@@]1(C)SC(=O)C=C1OC(=O)CC (racemic) | – |
| Neg | 8.6 µg/mL (≈ 28.2 µM) | – | – | CCCCCC[C@@]1(C)SC(=O)C=C1OCCCCCl (racemic) | – |
| Neg | 13.8 ± 1.1 µg/mL (≈ 45.9 µM) | – | – | CCCCCCCC[C@@]1(C)SC(=O)C=C1OCC(=O)O | – |
| Neg | 16.4 µg/mL (≈ 40.1 µM) | – | – | CCCCCCCCC1(C)SC(=O)C=C1OCC(=O)NNC(=O)c1ccco1 (stereo not drawn) | – |
| Neg | – | – | – | CC1(Cc2ccccc2)SC(=O)C=C1O (stereo not drawn) | Neg |
| – | 16.9 µg/mL (≈ 80.4 µM) | 238 µM | – | CC/C=C/C=C/C1(C)SC(=O)C=C1O (stereo not drawn) | – |
| Neg | – | – | – | CCCCCCCCC1(C)SC(=O)C=C1OCc1ccccc1 (stereo not drawn) | Neg(stim) |
| – | 23.1 ± 13.2 µg/mL (≈ 70.5 µM) | 246 µM | – | CCCCCCCC[C@@]1(C)SC(=O)C=C1OC(=O)NC(C)C (racemic) | – |
| Neg | 6.7 µg/mL (≈ 17.1 µM) | – | – | CCCCCC[C@@]1(C)SC(=O)C=C1OCC(=O)NCCCBr (racemic) | – |
| – | 10.7 µg/mL (≈ 35.6 µM) | 5.99 µM | – | CCCCCCCC[C@@]1(C)SC(=O)C=C1OC(=O)OC (racemic) | – |
| – | 17.6 µg/mL (≈ 61.4 µM) | 11.5 µM | – | CCCCCCCCC1(C)SC(=O)C(C(C)O)=C1O (stereo not drawn) | – |

| SMILES | FAS(IC50) [1] | IC50 [2] | IC50 [1] | IC50 ([1]; unit inferred) | 14C(IC50) [2] |
| --- | --- | --- | --- | --- | --- |
| C=CCNC(=O)COC1=CC(=O)S[C@]1(C)CCCCCCCCCC (racemic) | Neg | – | – | – | Neg |
| C#CCOC1CC(=O)S[C@]1(C)CCCCCC (mixture of isomers) | Neg | 21.9 ± 1.5 µg/mL | – | – | – |
| CCCCCCC1(C)SC(=O)C=C1OC (stereo not drawn) | Neg | 14 ± 2.8 µg/mL (≈ 61.3 µM) | – | – | – |
| CCCCCCCCC1(C)SC(=O)C=C1O (stereo not drawn) | – | 12.6 ± 4.4 µg/mL (≈ 52 µM) | 18.6 µM | – | – |
| CCCCCCC1(C)SC(=O)C=C1O (stereo not drawn) | Neg | 16.5 ± 3.8 µg/mL (≈ 77 µM) | – | – | – |
| C=CCOC1=CC(=O)S[C@]1(C)CCCCCCCC (racemic) | Neg | – | – | – | Neg |
| CCCCCCCCC1(C)SC(=O)C(C(C)O)=C1OC (stereo not drawn) | – | 21.7 µg/mL (≈ 72.2 µM) | 9.32 µM | – | – |
| CCCCCCCC[C@@]1(C)SC(=O)C=C1OCC(=O)OCC (racemic) | Neg | 10.8 ± 5.8 µg/mL (≈ 32.9 µM) | – | – | – |
| CCCC/C=C/C=C/C1(C)SC(=O)C=C1O (stereo not drawn) | – | 25.7 µg/mL (≈ 108 µM) | 36.1 µM | – | – |
| C=CCOC1=CC(=O)S[C@]1(C)CCCCCC (racemic) | Neg | – | – | – | Neg |
| C=CCOC(=O)OC1=CC(=O)S[C@]1(C)CCCCCCCC (racemic) | – | 14.2 µg/mL (≈ 43.5 µM) | 16.8 µM | – | – |
| CCCCCCCCC1(C)SC(=O)C(C)=C1O (stereo not drawn) | – | 16.5 ± 5.7 µg/mL (≈ 64.3 µM) | 192 µM | – | – |
